Our source for the TGI and GI50 values is PubChem BioAssay (NCI).

Test systems include TK-10 renal; EKVX NSCLC; LOX IMVI melanoma; SW-620 colon; SN12C renal; OVCAR-3 ovarian; OVCAR-5 ovarian; HOP-62 NSCLC; OVCAR-4 ovarian; HOP-92 NSCLC.
Assay in all cases: NCI-60 cell line screen, 48 h

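All cell lines were grown in 96-well plates and treated with compound for 48 hours. GI50 marks 50% less growth. TGI: total growth inhibition.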

As to `O=P(O)(O)CN1CCNCCN(CP(=O)(O)O)CC1`, the TGI in the assay with TK-10 renal, in the assay with EKVX NSCLC, with LOX IMVI melanoma, in the assay on SW-620 colon, in the assay on SN12C renal and in the assay with OVCAR-3 ovarian was over 100 µM in each case. Moreover, the TGI with OVCAR-5 ovarian, in the assay on HOP-62 NSCLC, in the assay with OVCAR-4 ovarian and in the assay with HOP-92 NSCLC was over 100 µM throughout.

As to `COc1ccc(-n2cnc3c(NC(Cc4ccccc4)C(=O)O)ncnc32)cc1` (stereo not given), the TGI with TK-10 renal, in the assay on EKVX NSCLC, in the assay on LOX IMVI melanoma, in the assay with SW-620 colon, in the assay with SN12C renal and with OVCAR-3 ovarian was over 100 µM each time. For the same compound, the TGI in the assay with OVCAR-5 ovarian, in the assay on HOP-62 NSCLC, in the assay with OVCAR-4 ovarian and with HOP-92 NSCLC was over 100 µM each time.

`COc1ccc(C2=NC(c3ccc(Cl)cc3)C(c3ccc(Cl)cc3)N2C(=O)N2CCNC(=O)C2)c(OC(C)C)c1` (stereo not given): the GI50 in the assay with TK-10 renal was 1.93 µM; with EKVX NSCLC it was 2.08 µM; in the assay with LOX IMVI melanoma, 1.78 µM; in the assay with SW-620 colon, 2.41 µM; in the assay on SN12C renal, 1.94 µM; with OVCAR-3 ovarian, 1.71 µM. Besides, the GI50 in the assay with OVCAR-5 ovarian is 2.23 µM; in the assay with HOP-62 NSCLC, 1.9 µM; with OVCAR-4 ovarian it was 2.16 µM; in the assay with HOP-92 NSCLC it was 2.1 µM. For the same compound, the TGI in the assay with TK-10 renal turned out to be 3.39 µM; with EKVX NSCLC, 4.18 µM; in the assay on LOX IMVI melanoma, 3.33 µM; with SW-620 colon, 6.12 µM; in the assay on SN12C renal it was 3.49 µM; with OVCAR-3 ovarian, 3.13 µM. The TGI came out at 5.54 µM with OVCAR-5 ovarian, 3.38 µM with HOP-62 NSCLC, 4.47 µM in the assay with OVCAR-4 ovarian and 4.06 µM with HOP-92 NSCLC.

On to `O=c1cc(N2CCCC2)[nH]c(=O)n1-c1ccc(Cl)cc1`, for which the TGI with TK-10 renal, with EKVX NSCLC, with LOX IMVI melanoma, in the assay on SW-620 colon, in the assay with SN12C renal and with OVCAR-3 ovarian was over 100 µM in each case. The TGI with OVCAR-5 ovarian, with HOP-62 NSCLC, in the assay on OVCAR-4 ovarian and in the assay on HOP-92 NSCLC was over 100 µM in each case.

On to `Cc1ccc(NC(=O)CC(=O)n2nc(C)c(N=Nc3cccc(C)c3)c2C)cc1`, for which the TGI in the assay with TK-10 renal, with EKVX NSCLC, in the assay with LOX IMVI melanoma, in the assay with SW-620 colon, in the assay with SN12C renal and in the assay on OVCAR-3 ovarian was over 100 µM each time. Further, the TGI in the assay on OVCAR-5 ovarian, with HOP-62 NSCLC, in the assay on OVCAR-4 ovarian and in the assay on HOP-92 NSCLC was over 100 µM each time.

As to `C=CC[C@H](N=C(SC)SC)C(=O)N1C(=O)N(C)[C@@H](C)[C@H]1c1ccccc1`, the TGI is over 100 µM with TK-10 renal; 78.4 µM in the assay on EKVX NSCLC; over 100 µM in the assay with LOX IMVI melanoma; over 100 µM in the assay on SW-620 colon; over 100 µM in the assay with SN12C renal; over 100 µM in the assay on OVCAR-3 ovarian. In addition, the TGI in the assay on OVCAR-5 ovarian was over 100 µM; with HOP-62 NSCLC, over 100 µM; with OVCAR-4 ovarian, over 100 µM; with HOP-92 NSCLC, 68.3 µM.

Take `CCOC(=O)Cn1c(=O)c(C)cn(COCCO)c1=O`: the TGI with TK-10 renal, in the assay on EKVX NSCLC, in the assay on LOX IMVI melanoma, with SW-620 colon, in the assay with SN12C renal and in the assay with OVCAR-3 ovarian was over 100 µM each time. In addition, the TGI with OVCAR-5 ovarian, with HOP-62 NSCLC, in the assay with OVCAR-4 ovarian and with HOP-92 NSCLC was over 100 µM each time.

As to `CC(C)c1ccc(/C=C2\CSCC3=C2N=C2SCC(=O)N2C3c2ccc(C(C)C)cc2)cc1` (stereo not given), the TGI with TK-10 renal, in the assay with EKVX NSCLC, with LOX IMVI melanoma, in the assay with SW-620 colon, in the assay on SN12C renal and in the assay on OVCAR-3 ovarian was over 100 µM in each case. In addition, the TGI in the assay on OVCAR-5 ovarian, with HOP-62 NSCLC, in the assay with OVCAR-4 ovarian and in the assay with HOP-92 NSCLC was over 100 µM throughout.

For the compound `CC(C)=NOC(=O)Nc1cccc2c1OCO2`, the TGI in the assay on TK-10 renal, in the assay on EKVX NSCLC, with LOX IMVI melanoma, with SW-620 colon, in the assay on SN12C renal and in the assay on OVCAR-3 ovarian was over 100 µM throughout. Besides, the TGI in the assay with OVCAR-5 ovarian, in the assay with HOP-62 NSCLC, in the assay on OVCAR-4 ovarian and in the assay on HOP-92 NSCLC was over 100 µM in each case.

With `C(#Cc1ccccc1)SC1=C(c2ccccc2)S/C(=C(\SC#Cc2ccccc2)c2ccccc2)S1`, the TGI with TK-10 renal, in the assay on EKVX NSCLC, in the assay on LOX IMVI melanoma, in the assay on SW-620 colon, in the assay on SN12C renal and in the assay on OVCAR-3 ovarian was over 100 µM in each case. Also, the TGI in the assay with OVCAR-5 ovarian, in the assay on HOP-62 NSCLC, in the assay with OVCAR-4 ovarian and with HOP-92 NSCLC was over 100 µM throughout.
